The values below come from ChEMBL document CHEMBL1833968, “Synthesis of novel triplet drugs with 1,3,5-trioxazatriquinane skeletons and their pharmacologies. Part 2: Synthesis of novel triplet drugs with the epoxymethano structure (capped homotriplet)” (Bioorg Med Chem Lett, 2011).

The source made the active and inactive calls. The rule behind the calls is not given here.

For one test, the target named is Mu-type opioid receptor (Mus musculus, UniProt P42866). Description: Displacement of [3H]DAMGO from mouse mu opioid receptor in whole brain without cerebellum. A general note: Loss of bound radioactivity is the signal in a displacement assay; it reports binding, not function.
Test [1] has as its target Delta-type opioid receptor (Mus musculus, UniProt P32300). Description: Displacement of [3H]DPDPE from mouse delta opioid receptor in whole brain without cerebellum.
Test [2] addresses Kappa-type opioid receptor (Cavia porcellus, UniProt P41144). Kind of test: Displacement of [3H]U69,593 from guinea pig kappa opioid receptor in cerebellum.
Test [3] in a line: Selectivity ratio of Ki for guinea pig kappa opioid receptor to mouse mu opioid receptor.
The species named for test [4] is Mus musculus. Description: Selectivity ratio of Ki for mouse delta opioid receptor to mouse mu receptor.
Test [5] has as its system Mus musculus. Kind of test: Antinociceptive activity in sc dosed mouse assessed as inhibition of acetic acid-induced writhing administered 15 mins before acetic acid challenge measured after 10 mins relative to control. In kind it is functional. In general terms: Writhing tests count abdominal constrictions after an irritant is injected.
Test [6] concerns Mus musculus. Description: Ratio of morphine ED50 to compound ED50 for antinociceptive activity in sc dosed mouse assessed as inhibition of acetic acid-induced writhing administered 15 mins before acetic acid challenge measured after 10 mins. In kind it is functional.

Delta-type opioid receptor, sequence (P32300 whole entry): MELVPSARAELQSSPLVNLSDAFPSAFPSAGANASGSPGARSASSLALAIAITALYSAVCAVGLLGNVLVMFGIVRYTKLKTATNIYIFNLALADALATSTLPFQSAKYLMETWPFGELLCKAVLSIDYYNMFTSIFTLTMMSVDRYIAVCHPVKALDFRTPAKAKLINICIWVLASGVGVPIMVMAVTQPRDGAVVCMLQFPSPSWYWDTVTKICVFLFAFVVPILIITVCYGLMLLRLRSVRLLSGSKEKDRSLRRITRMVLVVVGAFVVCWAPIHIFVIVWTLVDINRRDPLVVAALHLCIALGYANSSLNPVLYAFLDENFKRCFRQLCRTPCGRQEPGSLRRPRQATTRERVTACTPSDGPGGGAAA
Kappa-type opioid receptor, sequence (P41144 whole entry): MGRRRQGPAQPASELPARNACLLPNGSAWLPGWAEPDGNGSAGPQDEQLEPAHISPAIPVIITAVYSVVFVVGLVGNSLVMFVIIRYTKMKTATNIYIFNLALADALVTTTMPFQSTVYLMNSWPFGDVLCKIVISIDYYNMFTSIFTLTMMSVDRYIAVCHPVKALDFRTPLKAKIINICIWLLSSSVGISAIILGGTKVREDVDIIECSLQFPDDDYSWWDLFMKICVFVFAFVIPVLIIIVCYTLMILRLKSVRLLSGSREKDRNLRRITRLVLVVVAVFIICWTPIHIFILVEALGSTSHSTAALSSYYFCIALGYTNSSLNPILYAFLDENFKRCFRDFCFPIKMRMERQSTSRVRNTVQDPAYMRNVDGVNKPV
Mu-type opioid receptor, sequence (P42866 whole entry): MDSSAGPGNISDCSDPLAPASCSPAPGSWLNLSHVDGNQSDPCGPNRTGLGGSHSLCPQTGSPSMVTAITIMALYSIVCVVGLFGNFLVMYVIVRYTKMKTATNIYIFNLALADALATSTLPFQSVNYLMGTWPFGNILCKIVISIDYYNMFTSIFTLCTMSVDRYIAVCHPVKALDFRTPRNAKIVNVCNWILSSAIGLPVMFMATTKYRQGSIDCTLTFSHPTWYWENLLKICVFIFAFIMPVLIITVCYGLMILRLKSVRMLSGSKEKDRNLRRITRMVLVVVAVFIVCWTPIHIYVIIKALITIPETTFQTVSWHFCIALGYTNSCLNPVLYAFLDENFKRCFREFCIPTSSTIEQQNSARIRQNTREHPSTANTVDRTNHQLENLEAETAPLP

By Ki is commonly meant the equilibrium dissociation constant of an inhibitor or competing ligand from its target. One may read the ED50 as the dose that gives a 50% effect, or the effect in half of the subjects. As to `CN1CC[C@]23c4c5ccc(O)c4O[C@H]2[C@]2(CC[C@@]3(O)[C@H]1C5)O[C@H]1CO[C@@H]3N1[C@H]2O[C@]31CC[C@@]2(O)[C@H]3Cc4ccc(O)c5c4[C@@]2(CCN3C)[C@H]1O5`, the Ki at Mu-type opioid receptor was found to be 2.09 nM; in test [1], 52.9 nM; in test [2], 337 nM. In addition, the Ratio Ki in test [3] worked out at 161; in the test filed under Mus musculus [4], 25.3. Further, in the test with Mus musculus [5], the ED50 was 0.14 mg/kg. Further, the inhibition result in the test on Mus musculus [5] is “Dose-dependent effect”. In the test on Mus musculus [6], the “Ratio ED50” value stood at 4.

Take `Oc1ccc2c3c1O[C@H]1[C@]4(CC[C@@]5(O)[C@@H](C2)N(CC2CC2)CC[C@]315)O[C@@H]1CO[C@H]2N1[C@@H]4O[C@]21CC[C@@]2(O)[C@H]3Cc4ccc(O)c5c4[C@@]2(CCN3CC2CC2)[C@H]1O5`: the Ki at Mu-type opioid receptor was 38.2 nM; in test [1], greater than 1000 nM; in test [2], 247 nM. Moreover, the Ratio Ki in test [3] is 6.47.

In the case of `Oc1ccc2c(c1)[C@]13CCN(CC4CC4)[C@H](C2)[C@]1(O)CC[C@@]1(C3)O[C@H]2CO[C@@H]3N2[C@H]1O[C@]31CC[C@@]2(O)[C@H]3Cc4ccc(O)cc4[C@@]2(CCN3CC2CC2)C1`, the inhibitory constant (Ki) was determined as 0.771 nM on Mu-type opioid receptor, 5.98 nM in test [1] and 8.67 nM in test [2]. In addition, the Ratio Ki was 11.2 in test [3] and 7.76 in the test filed under Mus musculus [4].

Turning to `CC(C)CN1CC[C@]23c4c5ccc(O)c4O[C@H]2[C@]2(CC[C@@]3(O)[C@H]1C5)O[C@H]1CO[C@@H]3N1[C@H]2O[C@]31CC[C@@]2(O)[C@H]3Cc4ccc(O)c5c4[C@@]2(CCN3CC(C)C)[C@H]1O5`, the Ki on Mu-type opioid receptor was 25.3 nM; in test [1], greater than 1000 nM; in test [2], 119 nM. The Ratio Ki in test [3] amounted to 4.7.

For the compound `Oc1ccc2c3c1O[C@@H]1[C@]34CCN(CC3CC3)[C@H](C2)[C@]4(O)CC[C@@]12C=N[C@@H]([C@]1(O)CC[C@@]3(O)[C@H]4Cc5ccc(O)c6c5[C@@]3(CCN4CC3CC3)[C@H]1O6)O2`, the Ki on Mu-type opioid receptor turned out to be 1.03 nM; in test [1] it was 39.6 nM; in test [2], 1.66 nM. The Ratio Ki in test [3] worked out at 1.61; in the test filed under Mus musculus [4], 38.4.

Take `Oc1ccc2c3c1O[C@H]1[C@]4(CC[C@@]5(O)[C@@H](C2)N(CC2CC2)CC[C@]315)O[C@H]1CO[C@@H]2N1[C@H]4O[C@]21CC[C@@]2(O)[C@H]3Cc4ccc(O)c5c4[C@@]2(CCN3CC2CC2)[C@H]1O5`: the inhibitory constant (Ki) turned out to be 0.48 nM at Mu-type opioid receptor, 16.2 nM in test [1] and 2.75 nM in test [2]. Also, the Ratio Ki in test [3] amounted to 5.73; in the test listed under Mus musculus [4] it was 33.6.

For `Oc1ccc2c3c1O[C@H]1[C@]4(CC[C@H]5[C@@H](C2)N(CC2CC2)CC[C@@]351)O[C@H]1CO[C@@H]2N1[C@H]4O[C@]21CC[C@H]2[C@H]3Cc4ccc(O)c5c4[C@@]2(CCN3CC2CC2)[C@H]1O5`, the Ki at Mu-type opioid receptor was determined as 0.719 nM; in test [1], 7.8 nM; in test [2], 6.36 nM. Besides, the Ratio Ki came out at 8.84 in test [3] and 10.8 in the test filed under Mus musculus [4].

With `C=CCN1CC[C@]23c4c5ccc(O)c4O[C@H]2C(=O)CC[C@@]3(O)[C@H]1C5`, the inhibition result in the test with Mus musculus [5] is “inactive”.

For the compound `Oc1ccc2c3c1O[C@@H]1[C@]34CCN(CC3CC3)[C@H](C2)[C@]4(O)CC[C@@]12C=N[C@H]([C@]1(O)CC[C@@]3(O)[C@H]4Cc5ccc(O)c6c5[C@@]3(CCN4CC3CC3)[C@H]1O6)O2`, the inhibition constant Ki at Mu-type opioid receptor was determined as 1.9 nM; in test [1], 53.7 nM; in test [2], 1.16 nM. The Ratio Ki in test [3] was determined as 0.61; in the test listed under Mus musculus [4], 28.3.

`Oc1ccc2c3c1O[C@H]1[C@]4(CC[C@@]5(O)[C@@H](C2)N(CC2CCC2)CC[C@]315)O[C@H]1CO[C@@H]2N1[C@H]4O[C@]21CC[C@@]2(O)[C@H]3Cc4ccc(O)c5c4[C@@]2(CCN3CC2CCC2)[C@H]1O5`: the Ki came to 2.6 nM on Mu-type opioid receptor, 50 nM in test [1] and 176 nM in test [2]. Moreover, the Ratio Ki in test [3] came out at 67.7; in the test listed under Mus musculus [4], 19.2.
